Measured values as given in patent publication US9428549B2, “Derivatives of N-urea substituted amino acids as formyl peptide receptor modulators” (Allergan, Inc., priority 2013, dated 2016).
“And” between values parts separate entries of the source, which are not always exact repeats. Equal entries are not always repeated.

Target: T1, FPR2 (Homo sapiens, UniProt P25090)
T1 construct: expressed in transfected cells
T1 sequence (P25090 1-351): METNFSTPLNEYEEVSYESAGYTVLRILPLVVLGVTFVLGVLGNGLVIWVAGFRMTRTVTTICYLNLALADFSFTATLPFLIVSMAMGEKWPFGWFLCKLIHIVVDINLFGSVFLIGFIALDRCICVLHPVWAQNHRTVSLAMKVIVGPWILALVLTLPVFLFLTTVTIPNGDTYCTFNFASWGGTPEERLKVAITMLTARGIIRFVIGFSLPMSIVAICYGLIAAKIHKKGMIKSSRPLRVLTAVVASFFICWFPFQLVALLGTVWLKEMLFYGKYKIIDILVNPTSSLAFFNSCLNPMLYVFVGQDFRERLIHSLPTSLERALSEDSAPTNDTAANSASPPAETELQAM
Assay: Compound-induced calcium activity on FLIPR Tetra in CHO-Gα16 cells stably expressing FPRL1
Assay type: cell-based
Conditions: for FPR2 Ga16-CHO (Rel. eff.): relative efficacy; for EC50: tested 0.61 to 10,000 nM, read-out: FPR2 Ga16-CHO EC50
Protocol: CHO-Gα16 cells stably expressing FPRL1 were cultured in (F12, 10% FBS, 1% PSA, 400 μg/ml geneticin and 50 μg/ml hygromycin) and HEK-Gqi5 cells stable expressing FPR1 were cultured in (DMEM high glucose, 10% FBS, 1% PSA, 400 μg/ml geneticin and 50 μg/ml hygromycin). In general, the day before the experiment, 18,000 cells/well were plated in a 384-well clear bottom poly-d-lysine coated plate. The following day the screening compound-induced calcium activity was assayed on the FLIPR^Tetra. The drug plates were prepared in 384-well microplates using the EP3 and the MultiPROBE robotic liquid handling systems. Compounds were tested at concentrations ranging from 0.61 to 10,000 nM. Results are expressed as EC50 (nM) and efficacy values.

Structure (SMILES): CC(C)C[C@H](NC(=O)Nc1ccc(C(F)(F)F)cc1)C(=O)N(C)CC(=O)O [Compound 9, {Methyl[(2S)-4-Methyl-2-({[4-(trifluoromethyl)phenyl]carbamoyl}amino)pentanoyl]amino}acetic acid]
- FPR2 Ga16-CHO (Rel. eff.): (1.02)
- EC50: 0.41 nM

Structure (SMILES): CCN(CC(=O)OC(C)(C)C)C(=O)[C@H](CC(C)C)NC(=O)Nc1ccc(Br)cc1 [Compound 6, tert-Butyl {[(2S)-2-{[(4-bromophenyl)carbamoyl]amino}-4-methylpentanoyl](ethyl)amino}acetate]
- FPR2 Ga16-CHO (Rel. eff.): (0.50)
- EC50: 1970 nM

Structure (SMILES): CCN(CC(=O)OC(C)(C)C)C(=O)[C@H](CC(C)C)NC(=O)Nc1ccc(C(F)(F)F)cc1 [Compound 7, tert-Butyl {Ethyl[(2S)-4-methyl-2-({[4-(trifluoromethyl)phenyl]carbamoyl}amino)pentanoyl]amino}acetate]
- FPR2 Ga16-CHO (Rel. eff.): (0.91)
- EC50: 17 nM

Structure (SMILES): CCCN(CC(=O)OC(C)(C)C)C(=O)[C@H](CC(C)C)NC(=O)Nc1ccc(Br)cc1 [Compound 4, tert-Butyl {[(2S)-2-{[(4-Bromophenyl)carbamoyl]amino}-4-methylpentanoyl](propyl)amino}acetate]
- FPR2 Ga16-CHO (Rel. eff.): (1.04)
- EC50: 0.29 nM

Structure (SMILES): CCN(CC(=O)O)C(=O)[C@H](CC(C)C)NC(=O)Nc1ccc(C(F)(F)F)cc1 [Compound 15, {Ethyl[(2S)-4-Methyl-2-({[4-(trifluoromethyl)phenyl]carbamoyl}amino)pentanoyl]amino}acetic acid]
- FPR2 Ga16-CHO (Rel. eff.) (listed as {Ethyl[(2S)-4-Methyl-2-({[4-(trifluoromethyl)phenyl]carbamoyl}amino)pentanoyl]am): (0.85)
- FPR2 Ga16-CHO (Rel. eff.) (listed as {Ethyl[(2S)-4-methyl-2-({[4-(trifluoromethyl)phenyl]carbamoyl}amino)pentanoyl]am): (1.02)
- EC50: 0.32 nM and 1.85 nM

Structure (SMILES): CC(C)C[C@H](NC(=O)Nc1ccc(Br)cc1)C(=O)N(CC(=O)OC(C)(C)C)C(C)C [Compound 3, tert-Butyl {[(2S)-2-{[(4-Bromophenyl)carbamoyl]amino}-4-methylpentanoyl](propan-2-yl)amino}acetate]
- FPR2 Ga16-CHO (Rel. eff.): (1.06)
- EC50: 163 nM

Structure (SMILES): CC(C)C[C@H](NC(=O)Nc1ccc(C(F)(F)F)cc1)C(=O)N(CC(=O)O)C(C)C [Compound 11, {[(2S)-4-Methyl-2-({[4-(trifluoromethyl)phenyl]carbamoyl}amino)pentanoyl](propan-2-yl)amino}acetic acid]
- FPR2 Ga16-CHO (Rel. eff.): (0.75)
- EC50: 1730 nM

Structure (SMILES): CC(C)C[C@H](NC(=O)Nc1ccc(Br)cc1)C(=O)N(C)CC(=O)O [Compound 8, {[(2S)-2-{[(4-bromophenyl)carbamoyl]amino}-4-methylpentanoyl](methyl)amino}acetic acid]
- FPR2 Ga16-CHO (Rel. eff.): (1.00)
- EC50: < 1 nM

Structure (SMILES): CCN(CC(=O)O)C(=O)[C@H](CC(C)C)NC(=O)Nc1ccc(Br)cc1 [Compound 14, {[(2S)-2-{[(4-Bromophenyl)carbamoyl]amino}-4-methylpentanoyl](ethyl)amino}acetic acid]
- FPR2 Ga16-CHO (Rel. eff.): (0.99)
- EC50: 0.13 nM

Structure (SMILES): CC(C)C[C@H](NC(=O)Nc1ccc(Br)cc1)C(=O)N(C)CC(=O)OC(C)(C)C [Compound 1, tert-Butyl{[(2S)-2-{[(4-Bromophenyl)carbamoyl]amino}-4-methylpentanoyl](methyl)amino}acetate]
- FPR2 Ga16-CHO (Rel. eff.): (0.85)
- EC50: 11.8 nM

Structure (SMILES): CC(C)C[C@H](NC(=O)Nc1ccc(Br)cc1)C(=O)N(CC(=O)O)C(C)C [Compound 10, {[(2S)-2-{[(4-Bromophenyl)carbamoyl]amino}-4-methylpentanoyl](propan-2-yl)amino}acetic acid]
- FPR2 Ga16-CHO (Rel. eff.): (0.97)
- EC50: 0.24 nM

Structure (SMILES): CCCN(CC(=O)O)C(=O)[C@H](CC(C)C)NC(=O)Nc1ccc(C(F)(F)F)cc1 [Compound 13, {[(2S)-4-Methyl-2-({[4-(trifluoromethyl)phenyl]carbamoyl}amino)pentanoyl](propyl)amino}acetic acid]
- FPR2 Ga16-CHO (Rel. eff.): (1.04)
- EC50: < 1 nM

Structure (SMILES): CCCN(CC(=O)OC(C)(C)C)C(=O)[C@H](CC(C)C)NC(=O)Nc1ccc(C(F)(F)F)cc1 [Compound 5, tert-Butyl {[(2S)-4-Methyl-2-({[4-(trifluoromethyl)phenyl]carbamoyl}amino)pentanoyl](propyl)amino}acetate]
- FPR2 Ga16-CHO (Rel. eff.): (0.95)
- EC50: 434 nM

Structure (SMILES): CC(C)C[C@H](NC(=O)Nc1ccc(C(F)(F)F)cc1)C(=O)N(C)CC(=O)OC(C)(C)C [Compound 2, tert-Butyl {Methyl[(2S)-4-methyl-2-({[4-(trifluoromethyl)phenyl]carbamoyl}amino)pentanoyl]amino}acetate]
- FPR2 Ga16-CHO (Rel. eff.): (1.02)
- EC50: 995 nM
